“Also recorded” adds a separate entry of the source.
Legend:
Assay type in all cases: cell-based, human
[1] = system: BRCA2 sgRNA infected HT1080 cells; test: FIN sensitivity of BRCA2 sgRNA-infected HT1080 cells; conditions: BRCA2 sg HT1080 versus control
Experimental: (§1) Knockout of BRCA1, BRCA2, VDAC3, GPX4, ECAD, 53BP1, and NCOA4 in human cell lines was performed using single guide RNAs (sgRNAs) and the CRISPR-Cas9 expression system as previously described. Briefly, sgRNAs were cloned into the lentiviral LentiGuide vector. The sequences of sgRNAs used in the current study are listed in SEQ ID NOs 1-23. LentiGuide clones were transfected into HEK293T cells with a psPAX2 packaging plasmid and pMD2.G-expressing plasmid. Cells were infected with lentivirus with 0.8 μg/mL polybrene and selected with puromycin (1 μg/mL, InvivoGen) or blasticidin (2 μg/mL, InvivoGen), followed by Western blot analysis to confirm target gene deletion. To maintain GPX4 knockout cells, we added 1 μM ferrostatin-1 into the media.
(§2) Viable cells were measured using Cell Counting Kit-8 (CCK-8, Dojindo) as previously described. Briefly, cells were seeded onto 96-well plates and subsequently treated with indicated agents. Next, cells were exposed to 10 μL of CCK-8 reagent (100 μL of medium per well) for 1 hour at 37° C. with 5% CO2 in an incubator. The absorbance at a wavelength of 450 nm was determined using a FLUOstar Omega microplate reader (BMG Labtech). The combination effects were assessed with Bliss independence model and the score is defined as “observed combination effect” minus “expected additive effect”.

[2] = system: BRCA1 sgRNA-infected (BRCA1 sg) cells; test: FIN-induced lipid peroxidation and ferroptosis in BRCA1 sgRNA-infected cells; conditions: for effect of BRCA1 deficiency on the lipid peroxidation and ferroptosis induced by the compound: BRCA1 sg cells versus control; for effect on RSL3-induced cell death in BRCA1 sg cells: co-treatment with RSL3
Experimental: as §1, §2
(§3) Cell death was measured by propidium iodide (Roche) staining using a flow cytometer, as previously described. Briefly, cells were seeded onto 6- or 12-well plates and subsequently treated with indicated agents. For GPX4 knockout cells, ferrostatin-1 was removed from the culture media. Next, cells were collected (including floating dead cells) and stained with 5 μg/mL propidium iodide. The percentage of the propidium iodide-positive dead cells was determined using the flow cytometer BD Accuri C6 (BD Biosciences) or Attune NXT Flow Cytometer (ThermoFisher) with an FL2 detector. A minimum of 5,000 single cells were analyzed per well.
(§4) As previously described C11-BODIPY 581/591 (Invitrogen) was used for lipid peroxidation, MitoPerOx (Abcam) for mitochondrial lipid peroxidation, and CM-H2DCFDA (ThermoFisher) for ROS measurements. Briefly, cells were seeded on 6- or 12-well plates and subsequently treated with indicated agents. After staining with 2.5 μM C11-BODIPY 581/591, 2.5 μM MitoPerOx, or 4 μM CM-H2DCFDA for 20 minutes, cells were analyzed using the flow cytometer BD Accuri C6 (BD Biosciences) or Attune NxT Flow Cytometer (ThermoFisher) with a 488-nm laser on an FL1 detector. A minimum of 5,000 single cells were analyzed per well.

VDAC3-KO cells = test: FIN-induced ferroptosis in VDAC3-KO cells; conditions: VDAC3 sg cells versus control
Experimental: as §1
Viable cells were measured using Cell Counting Kit-8 (CCK-8, Dojindo) as previously described. Briefly, cells were seeded onto 96-well plates and subsequently treated with indicated agents. […] The absorbance at a wavelength of 450 nm was determined using a FLUOstar Omega microplate reader (BMG Labtech). The combination effects were assessed with Bliss independence model and the score is defined as “observed combination effect” minus “expected additive effect”.
Cell death was measured by propidium iodide (Roche) staining using a flow cytometer, as previously described. […] The percentage of the propidium iodide-positive dead cells was determined using the flow cytometer BD Accuri C6 (BD Biosciences) or Attune NXT Flow Cytometer (ThermoFisher) with an FL2 detector. A minimum of 5,000 single cells were analyzed per well.
as §4, with “Briefly, cells were seeded on 6- or 12-well plates and subsequently treated with indicated agents.” left out

[3] = system: WT, BRCA1- or VDAC3-deficient cells; test: Rescue of Erastin-induced ferroptosis by antioxidants (cell viability); conditions: for effect on Erastin-induced ferroptosis: wild-type (WT), BRCA1- or VDAC3-deficient cells
Experimental: as §2

NRF2 and GPX4 = NRF2 and GPX4 protein levels (western blotting); conditions: for GPX4 levels: BRCA1-mutant SUM149 cells
Experimental: Cell pellets were lysed using immunoprecipitation lysis buffer (Fisher Scientific) or NP-40 buffer containing complete mini protease inhibitors (Roche). Protein concentrations were detected by a Bicinchoninic Acid Protein Assay (Thermo Scientific) using a FLUOstar Omega microplate reader (BMG Labtech). Immunoprecipitation and Western blot analysis were conducted as previously described. The primary antibodies and concentrations used in the current study included the followed: GPX4 (1:1,000, MAB5457, R&D systems), BRCA1 (1:1,000, 14823, Cell Signaling), BRCA2 (1:1,000, MAB2476-SP, R&D Systems), DHODH (1:1,000, 14877-1-AP, Proteintech), ACSL4 (1:1,000, sc-271800, Santa Cruz), FSP1 (1:1,000, 20886-1-AP, Proteintech), VDAC1 (1:1,000, 66345-1-Ig, Proteintech), VDAC2 (1:1,000, 66388-1-Ig, Proteintech), VDAC3 (1:1,000, 55260-1-AP, Proteintech), SLC7A11 (1:1,000, 12691, Cell Signaling), NCOA4 (1:1,000, 66849, Cell Signaling), vinculin (1:10000; […], Sigma), β-actin (1:1,000, 3700, Cell Signaling), LC3B (1:5000, 3868, Cell Signaling), 53BP1 (1:5000, NB100-304, Novus Biologicals), E-Cadherin (1:1000, 3195, Cell Signaling), and tubulin (1:5000, 2144, Cell Signaling).

SUM149 and HS578T cells = test: ROS-related cell death in SUM149 and HS578T cells (cell viability)
Experimental: as §2

[4] = system: BRCA1-mutant cancer cells (SUM149, HCC1937); test: PARPi+GPX4i combination-induced lipid peroxidation and cell death; conditions: for effect on cell death induced by PARP inhibitor+GPX4 inhibitor combination: BRCA1-mutant cells
Experimental: as §3, §4

NCOA4 = NCOA4 expression after PARPi treatment (western blotting); conditions: SUM149 and HCC1937 cells
Experimental: Cell pellets were lysed using immunoprecipitation lysis buffer (Fisher Scientific) or NP-40 buffer containing complete mini protease inhibitors (Roche). Protein concentrations were detected by a Bicinchoninic Acid Protein Assay (Thermo Scientific) using a FLUOstar Omega microplate reader (BMG Labtech). Immunoprecipitation and Western blot analysis were conducted as previously described. The primary antibodies and concentrations used in the current study included the followed: GPX4 (1:1,000, MAB5457, R&D systems), BRCA1 (1:1,000, 14823, Cell Signaling), BRCA2 (1:1,000, MAB2476-SP, R&D Systems), DHODH (1:1,000, 14877-1-AP, Proteintech), ACSL4 (1:1,000, sc-271800, Santa Cruz), FSP1 (1:1,000, 20886-1-AP, Proteintech), VDAC1 (1:1,000, 66345-1-Ig, Proteintech), VDAC2 (1:1,000, 66388-1-Ig, Proteintech), VDAC3 (1:1,000, 55260-1-AP, Proteintech), SLC7A11 (1:1,000, 12691, Cell Signaling), NCOA4 (1:1,000, 66849, Cell Signaling), vinculin (1:10000; V4505, Sigma), β-actin (1:1,000, 3700, Cell Signaling), LC3B (1:5000, 3868, Cell Signaling), 53BP1 (1:5000, NB100-304, Novus Biologicals), E-Cadherin (1:1000, 3195, Cell Signaling), and tubulin (1:5000, 2144, Cell Signaling).

[5] = BRCA1 sgRNA infected SKOV3 cells

Q: Which results are given for CC(C)Oc1ccc(C(=O)Cn2ccnc2)cc1-n1c(CN2CCN(C(=O)COc3ccc(Cl)cc3)CC2)nc2ccccc2c1=O [IKE, imidazole ketone erastin]?
A: effect of BRCA2 depletion on cellular sensitivity to the compound [1]: did not affect; effect of BRCA1 deficiency on the lipid peroxidation and ferroptosis induced by the compound [2]: remarkably repressed; effect of VDAC3 deletion on the lipid peroxidation, ferroptosis or sensitivity induced by the compound (VDAC3-KO cells): largely abolished

Q: Which results are given for CC1(C)CC(NC(=O)C[P+](c2ccccc2)(c2ccccc2)c2ccccc2)CC(C)(C)N1[O] [MitoTEMPO]?
A: effect on cell viability of Erastin-treated cells ([3]; BRCA1- or VDAC3-deficient counterparts): did not provide a protective effect; effect on cell viability of Erastin-treated cells ([3]; WT cells): largely restored cell viability

Q: With CC(=O)N[C@@H](CS)C(=O)O [NAC, N-acetyl-1-cysteine] as the compound, how does the “effect on PARP inhibitor-induced NRF2 and GPX4 induction” value (NRF2 and GPX4; BRCA1-WT HS578T cells) read?
A: Its value is “abolished”.

Q: And the “effect on PARP inhibitor-induced cell killing” value (SUM149 and HS578T cells; BRCA1-deficient SUM149 cells)?
A: Its value is “partially restored; also recorded: suppressed”.

Q: CN1C(=O)NC(Cc2c[nH]c3c(Cl)cccc23)C1=O (centres unmarked) [Nec-1s] was tested. Which “effect on cell death induced by PARP inhibitor+GPX4 inhibitor combination” value [4] did it give?
A: The value was “not”.

Q: How did the “cell death in BRCA1-deficient versus BRCA1-proficient cells” value (SUM149 and HS578T cells; SUM149 or BRCA1 sg HS578T cells compared with HS578T cells) turn out when CC(C)(C)OO [TBH, tert-butyl hydroperoxide] was run?
A: The value was “induced more cell death”.

Q: CC1(C)CCCC(C)(C)N1[O] [TEMPO] was tested. Which “effect on Erastin-induced ferroptosis” value [3] did it give?
A: The value was “completely suppressed”.

Q: What does the source list for CCOC(=O)c1ccc(NC2CCCCC2)c(N)c1 [ferrostatin-1]?
A: effect on cell death induced by PARP inhibitor+GPX4 inhibitor combination [4]: largely abolished; effect on Erastin-induced ferroptosis [3]: completely suppressed; effect on RSL3-induced cell death in BRCA1 sg cells [2]: abolished

Q: Which NCOA4 expression (NCOA4) does the source give for NC(=O)c1cccc2cn(-c3ccc([C@@H]4CCCNC4)cc3)nc12 [niraparib] here?
A: Its NCOA4 expression is “significantly induced”.

Q: For O=C(O)c1cc(/N=N/c2ccc(S(=O)(=O)Nc3ccccn3)cc2)ccc1O [sulfasalazine], which “effect of BRCA1 deficiency on the lipid peroxidation and ferroptosis induced by the compound” value [2] is on record?
A: Its value is “did not affect”.

Q: And the “effect of VDAC3 deletion on the lipid peroxidation, ferroptosis or sensitivity induced by the compound” value (VDAC3-KO cells)?
A: The value was “did not affect”.

Q: For C[S+]([O-])CCCCN=C=S (centres unmarked) [sulforaphane], which GPX4 levels (NRF2 and GPX4) is on record?
A: The GPX4 levels was “increased GPX4 levels”.

Q: CC(C)(C)c1cc(O)ccc1O [tert-butylhydroquinone] was tested. Which GPX4 levels (NRF2 and GPX4) did it give?
A: The GPX4 levels was “increased GPX4 levels”.

Q: What about the “NRF2 and GPX4 levels” value (NRF2 and GPX4; [5]) of the same compound?
A: The value was “induced both NRF2 and GPX4 levels”.

Q: What about the “effect on ferroptosis induced by olaparib+RSL3 combination” value ([4]; SUM149 cells) of the same compound?
A: The value was “suppressed”.

Q: And the “effect on RSL3-induced ferroptosis” value [2, 5]?
A: Its value is “rendered these cells resistant to RSL3-induced ferroptosis”.

Q: Which “effect on cell death induced by PARP inhibitor+GPX4 inhibitor combination” value [4] does the source give for Z-VAD here?
A: The value was “not”.

Q: And the “effect on RSL3-induced cell death in BRCA1 sg cells” value [2]?
A: The value was “not”.

— patent US20260130924A1, “COMPOSITIONS AND METHODS OF TREATING SUBJECTS WITH BRCA1 MUTATION OR DEFICIENCY” (BOARD OF REGENTS, THE UNIVERSITY OF TEXAS SYSTEM, priority 2022, published 2026)
